Reference: patent US11382956B2, “Amylin analogues” (Zealand Pharma A/S, priority 2016, dated 2022)
Numbered stars: 1 amine (or outer) side, 2 acyl side, 3 side chain; on linkers, the order of the positions; unused ones are H or OH. Bridge positions count the residues as written; N and C are the ends. Square brackets hold non-standard residues; d marks the D form. Peptide text beside a SMILES is read from it. * marks the point of attachment. C20 diacid = O=C(O)CCCCCCCCCCCCCCCCCCC(=O)*; γGlu = O=C(O)[C@H](CCC(=O)[*:2])N[*:1]; Hyp = O=C(O)[C@@H]1C[C@@H](O)CN1; NMeI = CC[C@H](C)[C@H](NC)C(=O)O; Aad = N[C@@H](CCCC(=O)O)C(=O)O; Sar = CNCC(=O)O

Key:
[1] = target: T1, recombinant human calcitonin receptor (hCT-R) (Homo sapiens, UniProt P30988); assay: hCT-R cAMP assay (AlphaScreen) in 1321N1 cells; format: cell-based; conditions: cAMP formation, 45 min stimulation
T1 construct: host or cells: human astrocytoma cell line 1321N1
T1 sequence (P30988 25-474): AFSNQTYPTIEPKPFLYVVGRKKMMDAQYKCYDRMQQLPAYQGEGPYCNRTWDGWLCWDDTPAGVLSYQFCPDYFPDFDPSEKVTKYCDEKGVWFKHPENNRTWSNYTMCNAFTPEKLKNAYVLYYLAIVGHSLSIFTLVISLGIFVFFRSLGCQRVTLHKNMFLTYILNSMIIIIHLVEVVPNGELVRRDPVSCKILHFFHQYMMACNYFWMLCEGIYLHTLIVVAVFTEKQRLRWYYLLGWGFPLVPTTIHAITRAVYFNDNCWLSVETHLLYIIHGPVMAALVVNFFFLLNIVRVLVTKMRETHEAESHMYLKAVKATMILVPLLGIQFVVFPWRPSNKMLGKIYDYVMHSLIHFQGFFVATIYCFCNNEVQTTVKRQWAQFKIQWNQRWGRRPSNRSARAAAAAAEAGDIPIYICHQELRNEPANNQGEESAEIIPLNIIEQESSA
Outline: (§1)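 1321N1 astrocytoma cells expressing recombinant human calcitonin receptor alone or with RAMP3 (AMY3) stimulated 45 min at room temperature with peptide in IBMX-containing buffer. cAMP quantified by AlphaScreen after 1 h bead incubation; EC50 fitted from at least 7 concentrations.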

[2] = Assessment of physical stability: fibril formation by Thioflavin T fluorescence; format: physicochemical; parameters: key: FND = fibrillation not detected; FD = fibrillation detected; conditions: 1 mg/mL peptide; for Fibrillation (in buffer) pH4 acetate: 50 mM acetate buffer pH 4.0, 96 hours at 40° C.; for Fibrillation (in buffer) pH7 histidine: 50 mM histidine buffer pH 7.0, 96 hours at 40° C.; for Fibrillation (in buffer) pH7 phosphate: 50 mM phosphate buffer pH 7.0, 96 hours at 40° C.
Outline: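 Test peptide at 1 mg/mL with 40 μM ThT in 50 mM phosphate pH 7.0, 50 mM histidine pH 7.0, or 50 mM acetate pH 4.0, in triplicate. Fluorescence read every 10 min after 300 s agitation for 96 hours at 40° C; significant intensity rise scored as fibrillation detected (FD).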

[3] = target: T2, recombinant human amylin 3 receptor (hAMYR3) (Homo sapiens, UniProt O60896+P30988); assay: hAMYR3 cAMP assay (AlphaScreen) in 1321N1 cells; format: cell-based; conditions: cAMP formation, 45 min stimulation
T2 construct: host or cells: human astrocytoma cell line 1321N1
T2 sequence (P30988 25-474): T1 sequence (P30988 25-474)
T2 sequence (O60896 24-148 partner): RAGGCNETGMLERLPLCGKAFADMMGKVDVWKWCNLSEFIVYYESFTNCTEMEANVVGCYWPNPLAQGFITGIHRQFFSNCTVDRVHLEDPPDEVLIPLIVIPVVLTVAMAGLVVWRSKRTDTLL
Outline: as §1

[4] = Assessment of chemical stability in 40 mM buffers at 40° C. (RP-HPLC); format: physicochemical; conditions: 1 mg/mL; for % degradation after 72 h at 40° C. pH4 acetate: acetate buffer pH 4, 72 h; for % degradation after 14 days at 40° C. pH4 acetate: acetate buffer pH 4, 14 days; for % degradation after 72 h at 40° C. pH6 phosphate: phosphate buffer pH 6, 72 h; for % degradation after 14 days at 40° C. pH6 phosphate: phosphate buffer pH 6, 14 days; for % degradation after 72 h at 40° C. pH7 phosphate: phosphate buffer pH 7, 72 h; for % degradation after 14 days at 40° C. pH7 phosphate: phosphate buffer pH 7, 14 days
Outline: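 Peptides at 1 mg/mL in 40 mM acetate pH 4 or phosphate pH 6 and 7 were held at 40° C for 3 and 14 days. Main-peak area-% by C8 RP-HPLC, UV 220 nm; % degradation = change in main-peak area-% versus t=0.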

| EC50 [1] | Fibrillation (in buffer) pH4 acetate [2] | Fibrillation (in buffer) pH7 histidine [2] | Fibrillation (in buffer) pH7 phosphate [2] | EC50 [3] | % degradation after 72 h at 40° C. pH4 acetate [4] | % degradation after 14 days at 40° C. pH4 acetate [4] | % degradation after 72 h at 40° C. pH6 phosphate [4] | % degradation after 14 days at 40° C. pH6 phosphate [4] | % degradation after 72 h at 40° C. pH7 phosphate [4] | % degradation after 14 days at 40° C. pH7 phosphate [4] | SMILES |
| --- | --- | --- | --- | --- | --- | --- | --- | --- | --- | --- | --- |
| 0.006 nM | FD | FND | FND | 0.005 nM | 1.3% | <1% | <1% | <1% | 2.2% | <1% | CC[C@H](C)[C@@H](C(=O)N[C@@H](CC(C)C)C(=O)N[C@@H](CO)C(=O)N[C@@H](CO)C(=O)N[C@H](C(=O)N[C@@H](CCC(=O)O)C(=O)N[C@H](C(=O)NCC(=O)N[C@@H](CO)C(=O)N[C@@H](CC(N)=O)C(=O)N[C@H](C(=O)N1C[C@H](O)C[C@H]1C(N)=O)[C@@H](C)O)C(C)C)[C@@H](C)O)N(C)C(=O)[C@H](C)NC(=O)CN(C)C(=O)[C@H](Cc1ccccc1)NC(=O)CNC(=O)CNC(=O)[C@H](CCCNC(=N)N)NC(=O)[C@H](CCC(N)=O)NC(=O)[C@H](CC(C)C)NC(=O)[C@H](Cc1ccccc1)NC(=O)[C@H](CCCC(=O)O)NC(=O)[C@H](C)NC(=O)[C@H](CC(C)C)NC(=O)[C@H](CCCNC(=N)N)NC(=O)[C@H](CCC(=O)O)NC(=O)[C@@H](NC(=O)[C@H](C)NC(=O)[C@@H]1CCCCNC(=O)C[C@H](NC(=O)[C@H](CCCNC(=N)N)NC(=O)CC[C@H](NC(=O)CCCCCCCCCCCCCCCCCCC(=O)O)C(=O)O)C(=O)NCC(=O)N[C@@H]([C@@H](C)O)C(=O)N[C@@H](C)C(=O)N[C@@H]([C@@H](C)O)C(=O)N1)[C@@H](C)O [Compound 32, [19CD]-isoGlu-RD()GTATK()ATERLA-Aad-FLQRGGF-Gly(Me)-A-Ile(Me)-LSSTEVGSNT-Hyp-NH2] ({C20 diacid-γGlu}-RDGTATKATERLA[Aad]FLQRGGF[Sar]A[NMeI]LSSTEVGSNT[Hyp]-NH2; lactam 2-7) |
| 0.075 nM | FND | FND | FND | 0.031 nM |  | 3.2% |  | 12.6% |  | 20.3% | CC[C@H](C)[C@@H](C(=O)N[C@@H](CC(C)C)C(=O)N[C@@H](CO)C(=O)N[C@@H](CO)C(=O)N[C@H](C(=O)N[C@@H](CCC(=O)O)C(=O)N[C@H](C(=O)NCC(=O)N[C@@H](CO)C(=O)N[C@@H](CC(N)=O)C(=O)N[C@H](C(=O)N1C[C@H](O)C[C@H]1C(N)=O)[C@@H](C)O)C(C)C)[C@@H](C)O)N(C)C(=O)[C@H](C)NC(=O)CN(C)C(=O)[C@H](Cc1ccccc1)NC(=O)[C@H](CO)NC(=O)[C@H](CO)NC(=O)[C@H](CCCNC(=N)N)NC(=O)[C@H](CCC(N)=O)NC(=O)[C@H](CC(C)C)NC(=O)[C@H](Cc1ccccc1)NC(=O)[C@H](CCCC(=O)O)NC(=O)[C@H](C)NC(=O)[C@H](CC(C)C)NC(=O)[C@H](CCCNC(=N)N)NC(=O)[C@H](CCC(=O)O)NC(=O)[C@@H](NC(=O)[C@H](C)NC(=O)[C@@H]1CSSC[C@H](NC(=O)[C@H](CCCNC(=N)N)NC(=O)CC[C@H](NC(=O)CCCCCCCCCCCCCCCCCCC(=O)O)C(=O)O)C(=O)NCC(=O)N[C@@H]([C@@H](C)O)C(=O)N[C@@H](C)C(=O)N[C@@H]([C@@H](C)O)C(=O)N1)[C@@H](C)O [Ref. 4, [19CD]-isoGlu-RC()GTATC()ATERLA-Aad-FLQRSSF-Sar-A-Ile(Me)-LSSTEVGSNT-Hyp-NH2, reference compound] ({C20 diacid-γGlu}-RCGTATCATERLA[Aad]FLQRSSF[Sar]A[NMeI]LSSTEVGSNT[Hyp]-NH2; disulfide 2-7) |
| 0.058 nM | FND | FND | FND | 0.025 nM | 1.2% |  | <1% |  | <1% |  | CC[C@H](C)[C@@H](C(=O)N1CCC[C@H]1C(=O)N[C@@H](CO)C(=O)N[C@@H](CO)C(=O)N[C@H](C(=O)N[C@@H](CCC(=O)O)C(=O)N[C@H](C(=O)NCC(=O)N[C@@H](CO)C(=O)N[C@@H](CC(N)=O)C(=O)N[C@H](C(=O)N1C[C@H](O)C[C@H]1C(N)=O)[C@@H](C)O)C(C)C)[C@@H](C)O)N(C)C(=O)[C@H](C)NC(=O)CN(C)C(=O)[C@H](Cc1ccccc1)NC(=O)[C@H](CO)NC(=O)[C@H](CO)NC(=O)[C@H](CCCNC(=N)N)NC(=O)[C@H](CCC(N)=O)NC(=O)[C@H](CC(C)C)NC(=O)[C@H](Cc1ccccc1)NC(=O)[C@H](Cc1c[nH]cn1)NC(=O)[C@H](C)NC(=O)[C@H](CC(C)C)NC(=O)[C@H](CCCNC(=N)N)NC(=O)[C@H](CCC(=O)O)NC(=O)[C@@H](NC(=O)[C@H](C)NC(=O)[C@@H]1CCCCNC(=O)C[C@H](NC(=O)[C@H](CCCNC(=N)N)NC(=O)CC[C@H](NC(=O)CCCCCCCCCCCCCCCCCCC(=O)O)C(=O)O)C(=O)NCC(=O)N[C@@H]([C@@H](C)O)C(=O)N[C@@H](C)C(=O)N[C@@H]([C@@H](C)O)C(=O)N1)[C@@H](C)O [Compound 17, [19CD]-isoGlu-RD()GTATK()ATERLAHFLQRSSF-Gly(Me)-A-Ile(Me)-PSSTEVGSNT-Hyp-NH2] ({C20 diacid-γGlu}-RDGTATKATERLAHFLQRSSF[Sar]A[NMeI]PSSTEVGSNT[Hyp]-NH2; lactam 2-7) |

| SMILES | EC50 [1] | Fibrillation (in buffer) pH4 acetate [2] | Fibrillation (in buffer) pH7 histidine [2] | Fibrillation (in buffer) pH7 phosphate [2] | EC50 [3] | % degradation after 72 h at 40° C. pH4 acetate [4] | % degradation after 14 days at 40° C. pH4 acetate [4] | % degradation after 72 h at 40° C. pH6 phosphate [4] | % degradation after 14 days at 40° C. pH6 phosphate [4] | % degradation after 72 h at 40° C. pH7 phosphate [4] | % degradation after 14 days at 40° C. pH7 phosphate [4] |
| --- | --- | --- | --- | --- | --- | --- | --- | --- | --- | --- | --- |
| CC[C@H](C)[C@@H](C(=O)N[C@@H](CC(C)C)C(=O)N[C@@H](CO)C(=O)N[C@@H](CO)C(=O)N[C@H](C(=O)N[C@@H](CCC(=O)O)C(=O)N[C@H](C(=O)NCC(=O)N[C@@H](CO)C(=O)N[C@@H](CC(N)=O)C(=O)N[C@H](C(=O)N1C[C@H](O)C[C@H]1C(N)=O)[C@@H](C)O)C(C)C)[C@@H](C)O)N(C)C(=O)[C@H](C)NC(=O)CN(C)C(=O)[C@H](Cc1ccccc1)NC(=O)[C@H](CO)NC(=O)[C@H](CO)NC(=O)[C@H](CCCNC(=N)N)NC(=O)[C@H](CCC(N)=O)NC(=O)[C@H](CC(C)C)NC(=O)[C@H](Cc1ccccc1)NC(=O)[C@H](CC(=O)O)NC(=O)[C@H](C)NC(=O)[C@H](CC(C)C)NC(=O)[C@H](CCCNC(=N)N)NC(=O)[C@H](CCC(N)=O)NC(=O)[C@@H](NC(=O)[C@H](C)NC(=O)[C@@H]1CSSC[C@H](NC(=O)[C@H](CCCNC(=N)N)NC(=O)CC[C@H](NC(=O)CCCCCCCCCCCCCCCCCCC(=O)O)C(=O)O)C(=O)N[C@@H](CC(N)=O)C(=O)N[C@@H]([C@@H](C)O)C(=O)N[C@@H](C)C(=O)N[C@@H]([C@@H](C)O)C(=O)N1)[C@@H](C)O [Ref. 5, [19CD]-isoGlu-RC()NTATC()ATQRLADFLQRSSF-Sar-A-Ile(Me)-LSSTEVGSNT-Hyp-NH2, reference compound] ({C20 diacid-γGlu}-RCNTATCATQRLADFLQRSSF[Sar]A[NMeI]LSSTEVGSNT[Hyp]-NH2; disulfide 2-7) | 0.063 nM | FD | FND | FND | 0.028 nM |  | 3.0% |  | 5.1% |  | 12.7% |
